Measurements from paper PMC10607100, “Anticancer and Antiphytopathogenic Activity of Fluorinated Isatins and Their Water-Soluble Hydrazone Derivatives” (International Journal of Molecular Sciences, 2023).
Like-named read-outs stand apart in the source and are kept apart here.

Experiments:
[1] = tested on: Fusarium oxysporum IBPPM 543; assay: Mycelial radial growth inhibition; assay type: cell-based; details: for inhibition of growth at 1 µM: 1 nmol/mL; for inhibition of growth at 1 µM / inhibition of growth at 3 µM / inhibition of growth at 20 µM / inhibition of growth at 30 µM: read-out: Inhibition value, I (%); for inhibition of growth at 3 µM: 3 nmol/mL; for inhibition of growth at 20 µM: 20 nmol/mL; for inhibition of growth at 30 µM: 30 nmol/mL
In short: (§1)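 Compounds mixed into molten GPY agar at various concentrations; centre inoculated with a 5-mm mycelial plug from 10-day cultures and incubated at 27 °C. Colony diameter compared with untreated control until control plate was covered (usually 12 days); ≥4 replicates in two experiments.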

[2] = tested on: Phytophthora cactorum VKM F-985; assay: Mycelial radial growth inhibition; assay type: cell-based; details: for inhibition of growth at 1 µM: 1 nmol/mL; for inhibition of growth at 1 µM / inhibition of growth at 3 µM / inhibition of growth at 7 µM / inhibition of growth / inhibition of growth at 40 µM: read-out: Inhibition value, I (%); for inhibition of growth at 3 µM: 3 nmol/mL; for inhibition of growth at 7 µM: 7 nmol/mL; for inhibition of growth: 27 nmol/mL; for inhibition of growth at 40 µM: 40 nmol/mL
In short: as §1

Micrococcus luteus B-109 = assay: Agar-well diffusion, bactericidal activity; assay type: cell-based; details: Micrococcus luteus
In short: (§2)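 Bacteria spread on agar (BP medium; GYCa for X. campestris; pH 7.2–7.4) with 6-mm wells, each receiving 150 μL compound solution. Cultures grown at 28 °C; growth-inhibition zone width measured after 36–40 h.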

[3] = tested on: Pseudomonas fluorescens EL-2.1; assay: Agar-well diffusion, bactericidal activity; assay type: cell-based; details: Pseudomonas fluorescens, EL2.1, 2 mM/L
In short: as §2

[4] = tested on: Pectobacterium atrosepticum 1043; assay: Agar-well diffusion, bactericidal activity; assay type: cell-based; details: Pectobacterium atrosepticum, 1043; 2 mM/L; average of 3 experiments; read-out: width of the inhibition zone (mm), P. atrosepticum
In short: as §2

[5] = tested on: Pectobacterium carotovorum subsp. carotovorum MI; assay: Agar-well diffusion, bactericidal activity; assay type: cell-based; details: Pectobacterium carotovorum, 2 mM/L
In short: as §2

[6] = tested on: five representative phytopathogens; assay: Agar-well diffusion, bactericidal activity over the panel of phytopathogens; assay type: cell-based; details: 36 h, 2 mM solutions; dependent on the test system used; read-out: inhibition zone width (mm), range over the test systems
In short: as §2

[7] = tested on: Xanthomonas campestris B-610; assay: Agar-well diffusion, bactericidal activity; assay type: cell-based; details: Xanthomonas campestris
In short: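 Agar-well diffusion on GYCa agar (pH 7.2–7.4) seeded with bacterial suspension; 150 μL compound solution placed in 6-mm wells. Inhibition zone width measured after 36–40 h incubation.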

[8] = Fusarium oxysporum, IBPPM543, 72 h, age of the fungus 3 days
[9] = Fusarium oxysporum, IBPPM543, 120 h, age of the fungus 5 days
[10] = Fusarium oxysporum, IBPPM543, 168 h, age of the fungus 7 days
[11] = Fusarium oxysporum, IBPPM543, 216 h, age of the fungus 9 days
[12] = Phytophthora cactorum, 72 h, age of the fungus 3 days
[13] = Phytophthora cactorum, 120 h, age of the fungus 5 days
[14] = Phytophthora cactorum, 168 h, age of the fungus 7 days
[15] = Phytophthora cactorum, 216 h, age of the fungus 9 days
[16] = Table S3, read-out: Inhibition zone width (mm), not less

Cc1ccc2c(c1)C(=NNC(=O)C[n+]1ccccc1)C(=O)N2Cc1cccc(C(F)(F)F)c1.[Cl-] [Compound 5e, 1-(2-(2-(5-Methyl-2-oxo-1-(3-(trifluoromethyl)benzyl)indolin-3-ylidene)hydrazinyl)-2-oxoethyl)pyridin-1-ium chloride]
inhibition of growth at 1 µM [1, 8]: 33% | inhibition of growth at 3 µM [1, 8]: 66% | inhibition of growth at 20 µM [1, 8]: 69% | inhibition of growth at 30 µM [1, 8]: 75% | EC50 ([1]; Fusarium oxysporum, IBPPM543, 120 h, day 5, read-out: EC50, µg/mL at Day 5, F. oxysporum): 0.6 µg/mL | inhibition of growth at 1 µM [1, 9]: 48% | inhibition of growth at 3 µM [1, 9]: 67% | inhibition of growth at 20 µM [1, 9]: 72% | inhibition of growth at 30 µM [1, 9]: 76% | inhibition of growth at 1 µM [1, 10]: 33% | inhibition of growth at 3 µM [1, 10]: 65% | inhibition of growth at 20 µM [1, 10]: 69% | inhibition of growth at 30 µM [1, 10]: 72% | inhibition of growth at 1 µM [1, 11]: 18% | inhibition of growth at 3 µM [1, 11]: 64% | inhibition of growth at 20 µM [1, 11]: 67% | inhibition of growth at 30 µM [1, 11]: 71% | IC50 ([1]; Fusarium oxysporum, IBPPM543, read-out: IC50, antifungal activity against F. oxysporum): 0.6 µg/mL | fungicidal action stronger than N-cetylpyridinium chloride ([1]; same culture age (5 days)): 235 times | inhibition of Fusarium growth greater than fludioxonil ([1]; same culture age (5 days)): 139 times | antagonistic effect superior to that of N-cetylpyridinium chloride ([2]; 5 days of growth): 1.3 times | antagonistic effect superior to that of fludioxonil ([2]; 5 days of growth): 1.1 times | inhibition of growth at 1 µM [2, 12]: 20% | inhibition of growth at 3 µM [2, 12]: 23% | inhibition of growth at 7 µM [2, 12]: 25% | inhibition of growth [2, 12]: 28% | inhibition of growth at 40 µM [2, 12]: 35% | EC50 ([2]; Phytophthora cactorum, 120 h, day 5, read-out: EC50, µg/mL at Day 5, P. cactorum): 27.4 µg/mL | inhibition of growth at 1 µM [2, 13]: 16% | inhibition of growth at 3 µM [2, 13]: 19% | inhibition of growth at 7 µM [2, 13]: 30% | inhibition of growth [2, 13]: 35% | inhibition of growth at 40 µM [2, 13]: 38% | inhibition of growth at 1 µM [2, 14]: 15% | inhibition of growth at 3 µM [2, 14]: 17% | inhibition of growth at 7 µM [2, 14]: 23% | inhibition of growth [2, 14]: 26% | inhibition of growth at 40 µM [2, 14]: 29% | inhibition of growth at 1 µM [2, 15]: 14% | inhibition of growth at 3 µM [2, 15]: 17% | inhibition of growth at 7 µM [2, 15]: 19% | inhibition of growth [2, 15]: 21% | inhibition of growth at 40 µM [2, 15]: 26% | zone of inhibition at 2000 µM (Micrococcus luteus B-109; B109, 2 mM/L, average of 3 experiments, read-out: width of the inhibition zone (mm), M. luteus): 6 mm | zone of inhibition at 2000 µM (Micrococcus luteus B-109; B109, Table S3, 2 mM/L, read-out: Inhibition zone width (mm), not less): ≥ 6 mm | zone of inhibition at 2000 µM ([3]; average of 3 experiments, read-out: width of the inhibition zone (mm), Ps. fluorescens): 7 mm | zone of inhibition at 2000 µM [3, 16]: ≥ 7 mm | zone of inhibition at 2000 µM [4]: 4 mm | zone of inhibition at 2000 µM ([5]; average of 3 experiments, read-out: width of the inhibition zone (mm), P. carotovorum subsp. carotovorum): 5 mm | zone of inhibition at 2000 µM [5, 16]: ≥ 5 mm | zone of inhibition at 2000 µM [6]: 4 to 7 mm | melting point: 202 to 203 °C | zone of inhibition at 2000 µM ([7]; B610, 2 mM/L, average of 3 experiments, read-out: width of the inhibition zone (mm), X. campestris): 5 mm | zone of inhibition at 2000 µM ([7]; B610, Table S3, 2 mM/L, read-out: Inhibition zone width (mm), not less): ≥ 5 mm
